Measurements from US20040081964A1, “Gene and sequence variation associated with sensing carbohydrate compounds and other sweeteners” (priority 2002, published 2004).
Like-named read-outs stand apart in the source and are kept apart here.

Assays:
[1] = test system: mouse strains with 'B6-like' or '129-like' haplotype of Gpr98
Source text: (§1) Preferences for 10% ethanol for the same mouse strains were studied as described in Abstr. of the 23th RSA Meeting (June 2000, Denver, Colo.).

[2] = test system: 129.B6-Sac congenic mice
Source text: as §1

[3] = test system: mice from inbred strains with two different haplotypes of the Sac gene; details: strain preferences known from Lush et al., cited from earlier work
[4] = strains with the 129-like haplotype of Sac, p=0.0015 vs B6-like
[5] = strains with the B6-like haplotype of Sac

With `CCO` [ethanol] the “preference for 10% ethanol” value ([1]; strains with the '129-like' haplotype, n=10 strains, p<0.05, one-tailed t-test) was 12±2%, the “preference for 10% ethanol” value ([1]; strains with the 'B6-like' haplotype, n=14 strains) was 20±4% and the “consumption of 10% ethanol solution” value ([2]; congenic mice homozygous for the 194-kb donor fragment from the B6 strain) was 1.50 ± 0.15 mL/day. For the same compound, the “consumption of 10% ethanol solution” value ([2]; congenic mice without the donor fragment, p<0.05, one-tailed t-test) was 1.19 ± 0.11 mL/day.

For `O=C1NS(=O)(=O)c2ccccc21` [saccharin], the sweetener preference [3, 4] is listed as 57±2% and the sweetener preference [3, 5] is listed as 82±4%.

In the case of `OC[C@H]1O[C@@](CO)(O[C@H]2O[C@H](CO)[C@@H](O)[C@H](O)[C@H]2O)[C@@H](O)[C@@H]1O` [sucrose], the sweetener preference [3, 4] is given as 54±1% and the sweetener preference [3, 5] is given as 86±6%.
